Read-outs that look alike come from different tables or passages of the source.
Columns and labels:
[1] = system: MX-1 (human breast carcinoma) cells; assay: in vitro growth inhibition, cytotoxicity assay (Promega CellTiter Blue Cell Viability Assay); format: cell-based; settings: read-out: IC50, μM MX-1
Procedure: After 24 hrs., cells were exposed to various concentrations of compound in DMSO and cultured for another 72 hrs. 100 ul of media were removed and 20 ul of Promega CellTiter Blue reagent were added to each well and shaken to mix. […] The fluorescence produced is proportional to the number of viable cells. After plotting fluorescence produced against drug concentration, the IC50 was calculated as the […] of the resulting non-linear regression.

[2] = cited from earlier work
HSV-1 = settings: cited from earlier work
cellular growth = settings: read-out: concentration that inhibited cellular growth 50% in comparison with untreated controls; cited from earlier work
[3] = MX-1 cells, 72 hrs exposure, CellTiter Blue

Molecule	IC50 [1, 3] [µM]	further results
18-N-(2-Furo)amide-21-hydroxylgeldanamycin [Compound 10]	7.2	–
18-N-(2-Trifluoro)benzamide-21-hydroxylgeldanamycin [Compound 4]	0.68	–
18-N-(3,4-Dichloro)benzamide-21-hydroxylgeldanamycin [Compound 9]	0.8	–
18-N-(3,4-Dichloro)benzamide-21-methoxylgeldanamycin [Compound 70]	12.4	–
18-N-(4-Cyano)benzamide-21-hydroxylgeldanamycin [Compound 7]	0.13	–
18-N-(4-Fluoro)benzamide-21-hydroxylgeldanamycin [Compound 8]	2	–
18-N-(4-Methoxy)benzamide-21-hydroxylgeldanamycin [Compound 5]	0.29	–
18-N-(4-Nitro)benzamide-21-hydroxylgeldanamycin [Compound 3]	0.42	–
18-N-(4-Phenyl)benzamide-21-hydroxylgeldanamycin [Compound 6]	0.081	–
18-N-Benzamide-21-hydroxylgeldanamycin [Compound 1]	1.9	–
18-N-Benzylcarbamate-21-hydroxylgeldanamycin [Compound 16]	0.088	–
18-N-Benzylurea-21-hydroxylgeldanamycin [Compound 49]	2.4	–
18-N-Lauramide-21-hydroxylgeldanamycin [Compound 2]	1.3	–
18-N-iso-Nicotinamide-21-hydroxylgeldanamycin [Compound 11]	0.1	–
C=CC(=O)Nc1cc2c(O)c(c1OC)CC(C)CC(OC)C(O)C(C)C=C(C)C(OC(N)=O)C(OC)C=CC=C(C)C(=O)N2 (centres unmarked) [Compound 12, 18-N-Acrylamide-21-hydroxylgeldanamycin]	15.3	–
C=CCNC1=C2C[C@@H](C)C[C@H](OC)[C@H](O)[C@@H](C)/C=C(\C)[C@H](OC(N)=O)[C@@H](OC)/C=C\C=C(/C)C(=O)NC(=CC1=O)C2=O [Compound 17-AAG, 17-allylaminogeldanamycin, reference compound]	–	IC50 ([1]; Homo sapiens, MX1, 72 h): 1.7 µM; water solubility [2]: limited aqueous solubility
COc1c(NS(=O)(=O)c2ccc(C(F)(F)F)cc2)cc2c(O)c1CC(C)CC(OC)C(O)C(C)C=C(C)C(OC(N)=O)C(OC)C=CC=C(C)C(=O)N2 (centres unmarked) [Compound 29, 18-N-(4-trifluoromethylbenzene)sulfamide-21-hydroxylgeldanamycin]	0.078	–
COC1=C2C[C@@H](C)C[C@H](OC)[C@H](O)[C@@H](C)/C=C(\C)[C@H](OC(N)=O)[C@@H](OC)/C=C\C=C(/C)C(=O)NC(=CC1=O)C2=O [GA, Geldanamycin]	–	therapeutic index (HSV-1; cellular growth vs HSV-1 replication): over 3700; IC50 (HSV-1; in vitro, read-out: 50% inhibitory concentration, HSV-1 replication in vitro): 93 nM; IC50 ([1]; Homo sapiens, MX1, MX-1 cells, 72 hrs exposure, CellTiter Blue): 0.5 µM; water solubility [2]: poor water solubility; IC50 (cellular growth): 350000 nM

Source: US7816346B2, “Analogs of ansamycin and pharmaceutical compositions thereof” (priority 2006, dated 2010)
